# Results reported in patent publication US20070167492A1, “Molluscicidal agents” (priority 2003, published 2007).
# Assays:
# Type in all cases: in vivo
# [1] = tested on: Winter wheat (Kampa race) seeds; experiment: Seed germination test of treated winter wheat seeds (rolled in paper); conditions: 3x50 seeds, 6 days at 22° C.
# Protocol: (§1) Winter wheat (Kampa race; thousand grain weight of 51 grams) was used in an experiment to test the efficacy of the compositions of the present inventions in relation to known molluscicidal compounds. The seeds were disinfected for soil and germ moulds with 2 ml of Beret Gold (comprising 25 g/l of the fungicide fludioxonil) per kg of seed.
# (§2) Sepiret® was added to all dry disinfections, and is the coating that was added to all agents of which the formulation was not suitable for coating.
# Table 2 provides an overview of the amounts of diluent water and Sepiret® used for treating the wheat seeds. Table 2 further provides the quality of the coating and the percentages of germinating seeds in a seed germination test. In this test, the percentage of germination of 3×50 seeds, rolled in paper, was determined after 6 days at 22° C. (continuously) and a 16 hours light regime.
# [2] = tested on: Deroceras reticulatum (grey field slug); experiment: Example 1: pot test, treated winter wheat seed with 5 adult slugs per pot, 14 days; conditions: for protection / slug controlling effect (conclusion): winter wheat seed treatment
# Protocol: as §1, §2
# The seeds were sown in earthenware pots with an internal diameter of 20 cm and a height of 18 cm, filled with 7 cm of potting soil (Trio BV, Weesp, The Netherlands) and with a top 2 cm of white quartz sand. A total of 40 seeds was placed in each pot, in a pattern of concentric circles on top of the quartz sand, the germ facing upwards. To each pot a total of 5 adult specimens of the test slug Deroceras reticulatum (grey field slug) were added. The pots were incubated at ±15° C. with a relative humidity of ±90% and light regime of ±12 hours light/12 hours dark, without artificial lighting. The pots were not irrigated overhead. In total, 4 parallel tests were performed for each test.
# Following the addition of the slugs, the number of damaged seeds was counted after 2, 3, 7, 10 and 14 days. The number of plants present (germinated and not eaten or damaged by the slugs) was determined 3, 7, 10 and 14 days after the start of the test. […] The number of dead slugs was counted 2, 3, 7, 10 and 14 days after the start of the test (but not removed). Finally, on days 3, 7, 10 and 14 after the start of the test, the number fecal pellets was counted.
# (§3) The data were statistically analysed by using F-tests (α=0.05) and pair-wise Student-tests.
# [3] = tested on: Deroceras reticulatum (grey field slug); experiment: Example 2: pot re-test, treated winter wheat seed with 5 adult slugs per pot, 7 days
# From the text: Based on the results of the experiment described in Example 1, a selection was made from the various test numbers of that experiment for re-testing, partly to confirm the conclusions of that experiment and to test the unexpected outcome of some test compounds.
# The selection of test numbers (Test No.) used in the present experiment relative to those of the experiment described in Example 1 is shown in Table 7.
# The same seeds as described in Example 1 were sown in earthenware pots with an internal diameter of 20 cm and a height of 18 cm, filled with 7 cm of potting soil (Trio BV, Weesp, The Netherlands) and with a top 2 cm of white quartz sand. A total of 40 winter wheat seeds was placed in each pot, in a pattern of concentric circles on top of the quartz sand, the germ of the seed facing upwards. To each pot a total of 5 adult specimens of the test slug Deroceras reticulatum (grey field slug) were added. The pots were incubated at 18-19° C. with a relative humidity of ±95% and light regime of ±18 hours light/6 hours dark, without artificial lighting. The pots were not irrigated overhead. In total, 4 parallel tests were performed for each test.
# The number of damaged seeds was, the number of plants present (germinated and not eaten or damaged by the slugs), the number of dead slugs and of the number of fecal pellets were determined after 2, 3 and 7 days following the addition of the slugs.
# as §3
# [4] = 2 ml formulated per kg seed, 2 days after sowing
# [5] = 2 ml formulated per kg seed, 3 days after sowing
# [6] = 2 ml formulated per kg seed, 7 days after sowing
# [7] = 2 ml formulated per kg seed, 10 days after sowing
# [8] = 2 ml formulated per kg seed, 14 days after sowing
# [9] = 10 ml formulated per kg seed, 2 days after sowing
# [10] = 10 ml formulated per kg seed, 3 days after sowing
# [11] = 10 ml formulated per kg seed, 7 days after sowing
# [12] = 10 ml formulated per kg seed, 10 days after sowing
# [13] = 10 ml formulated per kg seed, 14 days after sowing
# [14] = Example 2, 10 ml formulated per kg seed, 2 days after sowing
# [15] = Example 2, 10 ml formulated per kg seed, 3 days after sowing
# [16] = Example 2, 10 ml formulated per kg seed, 7 days after sowing
molecule,measurement,setting,value
abamectine,Percentage germinated,[1]; 2 ml formulated per kg seed,47%
same,Percentage germinated,[1]; 10 ml formulated per kg seed,2%
same,number of utilizable plants after 14 days,[2]; 2 ml formulated per kg seed,0.8
same,percentage of damaged seeds after 14 days,[2]; 2 ml formulated per kg seed,93%
same,Mean number of damaged seeds per pot,[2]; [4],3.8
same,Mean number of dead slugs per pot,[2]; [4],0
same,Mean number fecal pellets per pot,[2]; [5],43
same,Mean number of damaged seeds per pot,[2]; [5],14.3
same,Mean number of dead slugs per pot,[2]; [5],0
same,Mean number of plants present per pot,[2]; [5],6.3
same,Mean number fecal pellets per pot,[2]; [6],119
same,Mean number of damaged seeds per pot,[2]; [6],35.8
same,Mean number of dead slugs per pot,[2]; [6],0
same,Mean number of plants present per pot,[2]; [6],0
same,Mean number fecal pellets per pot,[2]; [7],133
same,Mean number of damaged seeds per pot,[2]; [7],35.5
same,Mean number of dead slugs per pot,[2]; [7],0.3
same,Mean number of plants present per pot,[2]; [7],0.8
same,Mean number fecal pellets per pot,[2]; [8],140
same,Mean number of damaged seeds per pot,[2]; [8],37.0
same,Mean number of dead slugs per pot,[2]; [8],0.3
same,Mean number of plants present per pot,[2]; [8],0.8
same,number of utilizable plants after 14 days,[2]; 10 ml formulated per kg seed,9.0
same,percentage of damaged seeds after 14 days,[2]; 10 ml formulated per kg seed,61%
same,Mean number of damaged seeds per pot,[2]; [9],1.5
same,Mean number of dead slugs per pot,[2]; [9],0.3
same,Mean number fecal pellets per pot,[2]; [10],15
same,Mean number of damaged seeds per pot,[2]; [10],3.3
same,Mean number of dead slugs per pot,[2]; [10],0.5
same,Mean number of plants present per pot,[2]; [10],3.8
same,Mean number fecal pellets per pot,[2]; [11],89
same,Mean number of damaged seeds per pot,[2]; [11],21.0
same,Mean number of dead slugs per pot,[2]; [11],1.3
same,Mean number of plants present per pot,[2]; [11],6.0
same,Mean number fecal pellets per pot,[2]; [12],106
same,Mean number of damaged seeds per pot,[2]; [12],23.8
same,Mean number of dead slugs per pot,[2]; [12],1.3
same,Mean number of plants present per pot,[2]; [12],8.8
same,Mean number fecal pellets per pot,[2]; [13],114
same,Mean number of damaged seeds per pot,[2]; [13],24.3
same,Mean number of dead slugs per pot,[2]; [13],1.5
same,Mean number of plants present per pot,[2]; [13],9.0
same,damaged seeds relative to the untreated control,"[2]; Example 1, 10 ml/kg, after 3, 7 and 14 days",significantly less damaged seeds
same,protection / slug controlling effect (conclusion),"[2]; Example 1, dosages tested",no sufficient protection to the plants
same,number of plants present relative to untreated,[3]; Example 2,no significantly different results
same,phytotoxic effect on the seeds,[3]; Example 2,phytotoxic effect on the seeds
same,result of seed treatment against slugs (conclusion),[3]; Example 2,does not give the desired effect
same,percentage of damaged seeds after 7 days,"[3]; Example 2, 10 ml formulated per kg seed",31%
same,Mean number of damaged seeds per pot,[3]; [14],2.8
same,Mean number of dead slugs per pot,[3]; [14],0
same,Mean number of damaged seeds per pot,[3]; [15],6.0
same,Mean number of dead slugs per pot,[3]; [15],0.3
same,Mean number of damaged seeds per pot,[3]; [16],12.5
same,Mean number of dead slugs per pot,[3]; [16],0.8
same,number of damaged seeds relative to the untreated seed,"[3]; Example 2, two days after the start",significant reduction in the number of damaged seeds
same,Mean number of fecal pellets per pot,"[3]; dosage 10 ml, 2 days",11
same,Mean number of plants present per pot,"[3]; dosage 10 ml, 2 days",0.3
same,Mean number of fecal pellets per pot,"[3]; dosage 10 ml, 3 days",30
same,Mean number of plants present per pot,"[3]; dosage 10 ml, 3 days",1.3
same,Mean number of fecal pellets per pot,"[3]; dosage 10 ml, 7 days",69
same,Mean number of plants present per pot,"[3]; dosage 10 ml, 7 days",4.5
same,number of utilizable plants after 7 days,"[3]; dosage 10 ml, 7 days",2.0
CC=C(C)C(=O)OC1CC(OC(C)=O)C2(C(=O)OC)COC3C2C12COC(O)(C(=O)OC)C2C(C)(C12OC1(C)C1CC2OC2OC=CC21O)C3O (stereo not shown) [azadirachtine],Percentage germinated,[1]; 2 ml formulated per kg seed,90%
same,Percentage germinated,[1]; 10 ml formulated per kg seed,65%
same,number of utilizable plants after 14 days,[2]; 2 ml formulated per kg seed,0.8
same,percentage of damaged seeds after 14 days,[2]; 2 ml formulated per kg seed,95%
same,Mean number of damaged seeds per pot,[2]; [4],5.8
same,Mean number of dead slugs per pot,[2]; [4],0.3
same,Mean number fecal pellets per pot,[2]; [5],62
same,Mean number of damaged seeds per pot,[2]; [5],20.8
same,Mean number of dead slugs per pot,[2]; [5],0.3
same,Mean number of plants present per pot,[2]; [5],5.3
same,Mean number fecal pellets per pot,[2]; [6],106
same,Mean number of damaged seeds per pot,[2]; [6],37.0
same,Mean number of dead slugs per pot,[2]; [6],0.3
same,Mean number of plants present per pot,[2]; [6],1.0
same,Mean number fecal pellets per pot,[2]; [7],139
same,Mean number of damaged seeds per pot,[2]; [7],37.0
same,Mean number of dead slugs per pot,[2]; [7],0.3
same,Mean number of plants present per pot,[2]; [7],1.3
same,Mean number fecal pellets per pot,[2]; [8],156
same,Mean number of damaged seeds per pot,[2]; [8],38.0
same,Mean number of dead slugs per pot,[2]; [8],0.5
same,Mean number of plants present per pot,[2]; [8],0.8
same,number of utilizable plants after 14 days,[2]; 10 ml formulated per kg seed,2.3
same,percentage of damaged seeds after 14 days,[2]; 10 ml formulated per kg seed,86%
same,Mean number of damaged seeds per pot,[2]; [9],4.0
same,Mean number of dead slugs per pot,[2]; [9],0
same,Mean number fecal pellets per pot,[2]; [10],32
same,Mean number of damaged seeds per pot,[2]; [10],13.0
same,Mean number of dead slugs per pot,[2]; [10],0
same,Mean number of plants present per pot,[2]; [10],4.8
same,Mean number fecal pellets per pot,[2]; [11],93
same,Mean number of damaged seeds per pot,[2]; [11],30.5
same,Mean number of dead slugs per pot,[2]; [11],0
same,Mean number of plants present per pot,[2]; [11],2.8
same,Mean number fecal pellets per pot,[2]; [12],130
same,Mean number of damaged seeds per pot,[2]; [12],32.5
same,Mean number of dead slugs per pot,[2]; [12],0.3
same,Mean number of plants present per pot,[2]; [12],3.3
same,Mean number fecal pellets per pot,[2]; [13],138
same,Mean number of damaged seeds per pot,[2]; [13],34.5
same,Mean number of dead slugs per pot,[2]; [13],0.3
same,Mean number of plants present per pot,[2]; [13],3.8
same,differences in the number of damaged seeds,"[2]; Example 1, dosages tested",did not result in significant differences
same,protection / slug controlling effect (conclusion),"[2]; Example 1, dosages tested",no sufficient protection to the plants
